Test results reported in patent US11484561B2, “Morus extracts rich in N-acids of imino sugars and or pipecolic acids” (Phynova Limited, priority 2011, dated 2022).
Counter-ions that a name gives are not always drawn.

Assays:
Assay type in all cases: biochemical
[1] = biological target: T1, α-D-glucosidase (Yeast) (Saccharomyces cerevisiae, UniProt P53341); assay: Glycosidase assay, α-D-glucosidase (Yeast)
T1 construct: purchased Sigma-Aldrich
Experimental: (§1) The assays used p-nitrophenyl-substrates and commercial enzymes purchased from Sigma-Aldrich. Enzymes were assayed at 27° C. in 0.1M citric acid/0.2M disodium hydrogen phosphate buffers at the optimum pH for the enzyme. The incubation mixture consisted of 10 μl enzyme solution, 10 μl of 10 mg/ml aqueous solution of extract and 50 μl of the appropriate 5 mM p-nitrophenyl substrate made up in buffer at the optimum pH for the enzyme. The reactions were stopped by addition of 70 μl 0.4M glycine (pH 10.4) during the exponential phase of the reaction, which had been determined at the beginning using uninhibited assays in which water replaced mulberry fractions. Final absorbances were read at 405 nm using a Versamax microplate reader (Molecular Devices). Assays were carried out in triplicate, and the values given are means of the three replicates per assay. Results are expressed as % inhibition.
(§2) Substrates are 10 mM p-nitrophenyl-glycopyranosides. Enzymes are purchased from Sigma and run at the pH optima

[2] = system: α-D-glucosidase (Bacillus); assay: Glycosidase assay, α-D-glucosidase (Bacillus)
Experimental: as §1, §2

[3] = biological target: T2, α-D-glucosidase (rice) (Oryza sativa subsp. japonica, UniProt Q653V7); assay: Glycosidase assay, α-D-glucosidase (rice)
T2 construct: purchased Sigma-Aldrich
Experimental: as §1, §2

[4] = system: β-D-glucosidase (almond); assay: Glycosidase assay, β-D-glucosidase (almond)
Experimental: as §1, §2

[5] = biological target: T3, α-D-galactosidase (green coffee bean) (Coffea arabica, UniProt Q42656); assay: Glycosidase assay, α-D-galactosidase (green coffee bean); conditions: % inhibition; for α-D-galactosidase coffee bean: Table 6, concentration not given (method: 10 mg/ml solution)
T3 construct: purchased Sigma-Aldrich
Experimental: as §1, §2

[6] = biological target: T4, β-D-galactosidase (bovine) (Bos taurus, UniProt Q58D55); assay: Glycosidase assay, β-D-galactosidase (bovine)
T4 construct: purchased Sigma-Aldrich
T4 sequence (Q58D55 28-653): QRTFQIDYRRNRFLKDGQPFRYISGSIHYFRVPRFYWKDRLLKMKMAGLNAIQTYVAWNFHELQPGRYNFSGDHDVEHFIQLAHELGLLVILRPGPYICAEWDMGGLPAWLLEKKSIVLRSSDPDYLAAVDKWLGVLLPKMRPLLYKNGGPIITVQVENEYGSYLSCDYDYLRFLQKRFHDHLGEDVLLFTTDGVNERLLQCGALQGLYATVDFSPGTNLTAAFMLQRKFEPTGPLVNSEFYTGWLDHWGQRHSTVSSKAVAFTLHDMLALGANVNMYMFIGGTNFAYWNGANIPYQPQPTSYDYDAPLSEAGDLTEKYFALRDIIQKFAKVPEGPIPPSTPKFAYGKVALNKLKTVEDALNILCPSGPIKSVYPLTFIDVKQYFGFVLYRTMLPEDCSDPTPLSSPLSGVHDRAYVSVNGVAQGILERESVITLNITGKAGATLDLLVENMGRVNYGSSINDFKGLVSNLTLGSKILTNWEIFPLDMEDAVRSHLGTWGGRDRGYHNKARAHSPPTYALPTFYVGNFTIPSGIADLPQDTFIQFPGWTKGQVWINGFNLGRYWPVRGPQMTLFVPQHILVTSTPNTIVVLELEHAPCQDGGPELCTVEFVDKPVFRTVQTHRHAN
Experimental: as §1, §2

[7] = biological target: T5, α-D-mannosidase (Jack bean) (Canavalia ensiformis, UniProt C0HJB3); assay: Glycosidase assay, α-D-mannosidase (Jack bean); conditions: % inhibition
T5 construct: purchased Sigma-Aldrich
T5 sequence (C0HJB3 1-562 limits assumed): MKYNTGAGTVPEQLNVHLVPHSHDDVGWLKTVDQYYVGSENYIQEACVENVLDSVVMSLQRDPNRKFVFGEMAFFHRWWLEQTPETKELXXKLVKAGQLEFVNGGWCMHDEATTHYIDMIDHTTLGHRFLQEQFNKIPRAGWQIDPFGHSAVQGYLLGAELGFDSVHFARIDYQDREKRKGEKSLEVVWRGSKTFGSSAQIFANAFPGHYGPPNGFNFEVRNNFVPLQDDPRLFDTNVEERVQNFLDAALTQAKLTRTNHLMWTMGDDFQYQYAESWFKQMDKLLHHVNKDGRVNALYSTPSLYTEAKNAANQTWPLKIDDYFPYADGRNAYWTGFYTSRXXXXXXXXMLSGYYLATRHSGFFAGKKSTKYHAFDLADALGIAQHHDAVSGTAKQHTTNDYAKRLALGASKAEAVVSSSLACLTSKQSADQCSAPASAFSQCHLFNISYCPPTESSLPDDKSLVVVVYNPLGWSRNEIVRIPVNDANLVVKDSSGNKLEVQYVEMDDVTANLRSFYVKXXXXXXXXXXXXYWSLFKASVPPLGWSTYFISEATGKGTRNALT
Experimental: as §1, with “The reactions were stopped by addition of 70 μl 0.4M glycine (pH 10.4) during the exponential phase of the reaction, which had been determined at the beginning using uninhibited assays in which water replaced mulberry fractions.” left out
as §2

[8] = system: β-D-mannosidase Cellulomonas fimi; assay: Glycosidase assay, β-D-mannosidase (Cellulomonas fimi); conditions: % inhibition; for β-D-mannosidase Cellulomonas fimi: Table 6, concentration not given (method: 10 mg/ml solution)
Experimental: as §1

[9] = system: naringinase (P. decumbens); assay: Glycosidase assay, naringinase (P. decumbens); conditions: % inhibition
Experimental: as §1, §2

[10] = system: N-acetyl-β-D-gluc (Bovine kidney); assay: Glycosidase assay, N-acetyl-β-D-gluc (Bovine kidney)
Experimental: as §1, §2

[11] = system: N-acetyl-β-D-gluc (Jack bean); assay: Glycosidase assay, N-acetyl-β-D-gluc (Jack bean)
Experimental: as §1, §2

[12] = biological target: T6, amyloglucosidase (A. niger) (Aspergillus niger, UniProt P69328); assay: Glycosidase assay, amyloglucosidase (A. niger); conditions: % inhibition; for amyloglucosidase A. niger: Table 6, concentration not given (method: 10 mg/ml solution)
T6 construct: purchased Sigma-Aldrich
Experimental: as §1, §2

[13] = biological target: T7, β-glucuronidase (bovine liver) (Bos taurus, UniProt A3KMY8); assay: Glycosidase assay, β-glucuronidase (bovine liver); conditions: Table 6; % inhibition; concentration not given (method: 10 mg/ml solution)
T7 construct: purchased Sigma-Aldrich; host or cells: bovine liver
T7 sequence (A3KMY8 1-652): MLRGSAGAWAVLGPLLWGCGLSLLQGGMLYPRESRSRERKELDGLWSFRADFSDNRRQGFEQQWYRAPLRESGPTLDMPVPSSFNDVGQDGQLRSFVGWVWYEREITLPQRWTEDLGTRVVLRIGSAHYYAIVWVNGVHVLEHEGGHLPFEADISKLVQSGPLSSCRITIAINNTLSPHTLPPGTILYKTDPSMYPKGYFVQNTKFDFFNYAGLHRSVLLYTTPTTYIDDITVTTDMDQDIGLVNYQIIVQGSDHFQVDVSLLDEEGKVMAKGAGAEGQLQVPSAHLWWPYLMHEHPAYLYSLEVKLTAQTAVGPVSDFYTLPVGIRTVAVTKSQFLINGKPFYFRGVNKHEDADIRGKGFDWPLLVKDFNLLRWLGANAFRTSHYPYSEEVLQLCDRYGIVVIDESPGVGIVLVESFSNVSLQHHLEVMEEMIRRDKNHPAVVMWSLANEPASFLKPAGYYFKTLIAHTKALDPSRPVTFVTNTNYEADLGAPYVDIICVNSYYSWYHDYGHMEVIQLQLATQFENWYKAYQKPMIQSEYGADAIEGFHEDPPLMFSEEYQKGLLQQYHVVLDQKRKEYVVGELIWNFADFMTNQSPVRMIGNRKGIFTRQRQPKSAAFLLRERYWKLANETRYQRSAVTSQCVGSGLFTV
Experimental: as §1, §2

[14] = system: glycogen phosphorylase; assay: Glycogen phosphorylase assay; conditions: for GP Inhibition (%): at 400 μM; for glycogen phosphorylase inhibition: words, no concentration
[15] = biological target: T8, α-L-fucosidase (bovine) (Bos taurus, UniProt Q2KIM0); assay: Glycosidase assay, α-L-fucosidase (bovine); conditions: Table 16; % inhibition; concentration not given
T8 construct: purchased Sigma-Aldrich
T8 sequence (Q2KIM0 23-468): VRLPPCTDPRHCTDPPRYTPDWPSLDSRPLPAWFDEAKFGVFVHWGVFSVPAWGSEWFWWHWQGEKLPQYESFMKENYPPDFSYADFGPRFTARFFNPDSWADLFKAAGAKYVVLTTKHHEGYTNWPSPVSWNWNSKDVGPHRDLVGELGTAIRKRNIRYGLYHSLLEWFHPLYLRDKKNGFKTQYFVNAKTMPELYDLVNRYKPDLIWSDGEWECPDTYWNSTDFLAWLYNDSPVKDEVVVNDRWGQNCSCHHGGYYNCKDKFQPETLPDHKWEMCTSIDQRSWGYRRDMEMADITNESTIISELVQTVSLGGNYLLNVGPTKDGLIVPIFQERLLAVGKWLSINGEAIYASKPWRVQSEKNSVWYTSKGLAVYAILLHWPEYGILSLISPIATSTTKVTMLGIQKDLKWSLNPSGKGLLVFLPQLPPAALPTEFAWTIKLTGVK
Experimental: as §1

[16] = system: β-D-glucosidase (yeast); assay: Glycosidase assay, β-D-glucosidase (yeast); conditions: Table 16; % inhibition; concentration not given
Experimental: as §1

[17] = Table 6, % inhibition, concentration not given (method: 10 mg/ml solution)
[18] = Table 6, concentration not given (method: 10 mg/ml solution)
[19] = Table 16, % inhibition, concentration not given
[20] = Table 16, concentration not given
[21] = Table 9, sugar fractions, 10 mM p-nitrophenyl substrate, concentration given only for sucrose (10 mg/ml)

T3 sequence (Q42656 16-378): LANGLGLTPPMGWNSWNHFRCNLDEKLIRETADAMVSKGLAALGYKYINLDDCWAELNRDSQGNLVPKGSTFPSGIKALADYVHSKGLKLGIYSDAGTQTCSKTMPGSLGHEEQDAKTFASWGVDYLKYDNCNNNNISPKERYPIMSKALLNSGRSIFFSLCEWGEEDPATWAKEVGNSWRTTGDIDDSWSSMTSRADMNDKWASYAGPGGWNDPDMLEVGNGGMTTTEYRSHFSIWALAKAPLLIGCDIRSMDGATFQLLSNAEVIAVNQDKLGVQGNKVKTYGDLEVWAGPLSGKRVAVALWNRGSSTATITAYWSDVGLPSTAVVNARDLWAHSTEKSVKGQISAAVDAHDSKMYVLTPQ
T6 sequence (P69328 25-640): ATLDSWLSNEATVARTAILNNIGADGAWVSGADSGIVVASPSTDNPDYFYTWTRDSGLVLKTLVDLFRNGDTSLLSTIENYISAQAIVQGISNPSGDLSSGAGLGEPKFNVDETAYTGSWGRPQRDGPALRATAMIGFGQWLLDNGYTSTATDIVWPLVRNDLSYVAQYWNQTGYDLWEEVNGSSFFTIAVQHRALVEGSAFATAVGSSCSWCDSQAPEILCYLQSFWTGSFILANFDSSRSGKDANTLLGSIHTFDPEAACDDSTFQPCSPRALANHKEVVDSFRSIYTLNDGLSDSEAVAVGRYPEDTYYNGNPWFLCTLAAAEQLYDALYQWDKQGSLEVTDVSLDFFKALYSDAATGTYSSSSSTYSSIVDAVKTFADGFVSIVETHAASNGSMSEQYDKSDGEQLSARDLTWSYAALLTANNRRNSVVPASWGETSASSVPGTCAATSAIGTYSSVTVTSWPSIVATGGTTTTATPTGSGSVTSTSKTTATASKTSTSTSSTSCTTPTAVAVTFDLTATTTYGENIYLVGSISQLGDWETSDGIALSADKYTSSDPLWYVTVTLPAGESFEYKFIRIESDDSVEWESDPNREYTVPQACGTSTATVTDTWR
T2 sequence (Q653V7 34-885): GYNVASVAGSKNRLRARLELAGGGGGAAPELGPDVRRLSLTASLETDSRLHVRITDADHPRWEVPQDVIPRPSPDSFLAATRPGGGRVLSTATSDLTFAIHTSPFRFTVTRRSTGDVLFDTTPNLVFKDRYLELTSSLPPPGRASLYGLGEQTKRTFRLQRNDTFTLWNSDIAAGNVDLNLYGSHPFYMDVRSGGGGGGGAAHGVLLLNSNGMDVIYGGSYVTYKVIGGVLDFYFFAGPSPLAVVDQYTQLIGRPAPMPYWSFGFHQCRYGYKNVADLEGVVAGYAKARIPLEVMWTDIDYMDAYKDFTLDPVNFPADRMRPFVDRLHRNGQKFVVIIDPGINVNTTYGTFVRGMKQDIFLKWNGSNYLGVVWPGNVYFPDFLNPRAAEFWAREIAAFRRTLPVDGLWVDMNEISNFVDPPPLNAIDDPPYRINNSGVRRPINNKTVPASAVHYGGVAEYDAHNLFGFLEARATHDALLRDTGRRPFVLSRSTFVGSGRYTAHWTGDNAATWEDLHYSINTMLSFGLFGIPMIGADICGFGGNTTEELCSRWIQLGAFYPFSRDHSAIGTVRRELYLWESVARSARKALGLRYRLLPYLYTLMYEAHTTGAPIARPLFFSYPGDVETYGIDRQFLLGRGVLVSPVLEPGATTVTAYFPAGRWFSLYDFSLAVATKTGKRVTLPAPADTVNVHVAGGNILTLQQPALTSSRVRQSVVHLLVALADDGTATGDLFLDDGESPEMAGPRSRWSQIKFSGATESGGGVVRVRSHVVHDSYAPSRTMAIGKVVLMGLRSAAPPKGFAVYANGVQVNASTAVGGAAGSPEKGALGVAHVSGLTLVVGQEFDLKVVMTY
T1 sequence (P53341 whole entry): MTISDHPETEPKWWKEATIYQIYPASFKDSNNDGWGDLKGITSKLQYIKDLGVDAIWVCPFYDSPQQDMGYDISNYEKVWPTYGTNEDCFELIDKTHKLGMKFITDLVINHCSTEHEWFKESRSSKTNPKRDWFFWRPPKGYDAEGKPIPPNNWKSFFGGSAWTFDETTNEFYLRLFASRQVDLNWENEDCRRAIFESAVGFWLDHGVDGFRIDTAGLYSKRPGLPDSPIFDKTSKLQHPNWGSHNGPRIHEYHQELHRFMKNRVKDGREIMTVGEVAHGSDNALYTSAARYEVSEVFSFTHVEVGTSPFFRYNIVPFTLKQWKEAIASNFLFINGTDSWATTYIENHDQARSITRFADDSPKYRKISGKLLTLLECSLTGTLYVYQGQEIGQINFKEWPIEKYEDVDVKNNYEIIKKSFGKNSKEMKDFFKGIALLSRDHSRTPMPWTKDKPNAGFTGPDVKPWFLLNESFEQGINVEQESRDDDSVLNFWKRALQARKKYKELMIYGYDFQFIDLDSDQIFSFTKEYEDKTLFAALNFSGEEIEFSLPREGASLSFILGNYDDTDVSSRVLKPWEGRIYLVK

SMILES	α-D-glucosidase (Yeast) [1, 17]	α-D-glucosidase (Bacillus) [2, 17]	α-D-glucosidase (Rice) [3, 17]	β-D-glucosidase almond [4, 17]	α-D-galactosidase coffee bean [5]	β-D-galactosidase (Bovine) [6, 17]	α-D-mannosidase (Jack bean) [7, 18]	β-D-mannosidase Cellulomonas fimi [8]	Naringinase (P. decumbens) [9, 18]	N-acetyl-β-D-gluc (Bovine kidney) [10, 17]	N-acetyl-β-D-gluc Jack bean [11, 17]	amyloglucosidase A. niger [12]	β-glucuronidase bovine liver [13]	GP Inhibition (%) [14]	glycogen phosphorylase inhibition [14]	also measured
C[n+]1cc(C(=O)[O-])ccc1O [6OH trig, 6-hydroxytrigonelline]	0%	−36%	0%	0%	−16%	8%	0%	0%	0%	12%	−11%	0%	0%	11.9%	–	–
OC[C@H]1NC[C@@H](O)[C@@H]1O [DAB, 1,4-dideoxy-1,4-imino-D-arabinitol]	–	–	–	–	–	–	–	–	–	–	–	–	–	–	–	α-D-glucosidase (Yeast) [1, 19]: 100%; α-D-glucosidase (Bacillus) [2, 19]: 93%; α-D-glucosidase (Rice) [3, 19]: 100%; α-D-galactosidase (Green coffee beans) [5, 20]: 7%; β-D-galactosidase (Bovine) [6, 19]: 100%; α-L-fucosidase (Bovine) [15]: 5%; α-D-mannosidase (Jack bean) [7, 20]: 3%; β-D-mannosidase (C. fimi) [8, 20]: 95%; Naringinase (P. decumbens) [9, 20]: 3%; N-acetyl-β-D-gluc (Bovine kidney) [10, 19]: −8%; Amyloglucosidase [12, 20]: 47%; β-D-glucosidase (yeast) [16]: 100%
O=C(O)[C@@H]1CC[C@@H](O)CN1 [compound 900439]	0%	0%	0%	0%	−6%	0%	0%	0%	−6%	9%	8%	0%	0%	–	–	–
O=C(O)[C@@H]1CC[C@@H](O)CN1 [drawing 7]	–	–	–	–	–	–	–	–	–	–	–	–	–	0%	–	–
OC[C@H]1NCC[C@@H](O)[C@@H]1O [fagomine, Fagomine]	–	–	–	–	–	–	–	–	–	–	–	–	–	–	do not inhibit	–
OC[C@H]1O[C@@](CO)(O[C@H]2O[C@H](CO)[C@@H](O)[C@H](O)[C@H]2O)[C@@H](O)[C@@H]1O [sucrose]	–	–	–	–	–	–	–	–	–	–	–	–	–	–	do not inhibit	α-D-glucosidase (Yeast) [1, 21]: 0 % inhibition; α-D-glucosidase (Bacillus) [2, 21]: −7 % inhibition; α-D-glucosidase (Rice) [3, 21]: 0 % inhibition; β-D-glucosidase almond [4, 21]: 0 % inhibition; β-D-galactosidase (Bovine) [6, 21]: 0 % inhibition; N-acetyl-β-D-gluc (Bovine kidney) ([10]; Table 9, sucrose 10 mg/ml): 0 % inhibition; N-acetyl-β-D-gluc Jack bean [11, 21]: 0 % inhibition
C[n+]1cccc(C(=O)[O-])c1 [trigonellin HCl, trigonelline]	0%	−12%	0%	0%	0%	0%	0%	0%	0%	−8%	0%	0%	0%	6.9%	not greatly inhibitory	–
